Experimental data published in PubChem BioAssay (NCI).
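Interpolation was linear, between the two tested concentrations surrounding the appropriate level; five concentrations were tested over 48 hours in 96-well plates. At the TGI there is no net growth.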

Columns and labels:
Test in all cases: NCI tumour cell line growth inhibition, 48 h
786-0 renal = tested on: 786-0 renal
A549 NSCLC = tested on: A549 NSCLC
ACHN renal = tested on: ACHN renal
BT-549 breast = tested on: BT-549 breast
CAKI-1 renal = tested on: CAKI-1 renal
CCRF-CEM leukemia = tested on: CCRF-CEM leukemia
COLO 205 colon = tested on: COLO 205 colon
DU-145 prostate = tested on: DU-145 prostate
EKVX NSCLC = tested on: EKVX NSCLC
HCC-2998 colon = tested on: HCC-2998 colon
HCT-116 colon = tested on: HCT-116 colon
HOP-62 NSCLC = tested on: HOP-62 NSCLC
HOP-92 NSCLC = tested on: HOP-92 NSCLC
HS 578T breast = tested on: HS 578T breast
HT29 colon = tested on: HT29 colon
IGROV1 ovarian = tested on: IGROV1 ovarian
KM12 colon = tested on: KM12 colon
LOX IMVI melanoma = tested on: LOX IMVI melanoma
M14 melanoma = tested on: M14 melanoma
MALME-3M melanoma = tested on: MALME-3M melanoma
MDA-MB-231 breast = tested on: MDA-MB-231 breast
MDA-MB-435 = tested on: MDA-MB-435
MDA-N = tested on: MDA-N
MOLT-4 leukemia = tested on: MOLT-4 leukemia
NCI-H23 lung = tested on: NCI-H23 lung
NCI-H460 lung = tested on: NCI-H460 lung
NCI-H522 lung = tested on: NCI-H522 lung
OVCAR-3 ovarian = tested on: OVCAR-3 ovarian
OVCAR-4 ovarian = tested on: OVCAR-4 ovarian
OVCAR-5 ovarian = tested on: OVCAR-5 ovarian
PC-3 prostate = tested on: PC-3 prostate
RPMI-8226 leukemia = tested on: RPMI-8226 leukemia
SF-268 CNS = tested on: SF-268 CNS
SF-295 CNS = tested on: SF-295 CNS
SK-MEL-2 melanoma = tested on: SK-MEL-2 melanoma
SK-MEL-28 melanoma = tested on: SK-MEL-28 melanoma
SK-MEL-5 melanoma = tested on: SK-MEL-5 melanoma
SK-OV-3 ovarian = tested on: SK-OV-3 ovarian
SN12C renal = tested on: SN12C renal
SNB-19 CNS = tested on: SNB-19 CNS
SNB-75 CNS = tested on: SNB-75 CNS
SR leukemia = tested on: SR leukemia
SW-620 colon = tested on: SW-620 colon
T-47D breast = tested on: T-47D breast
TK-10 renal = tested on: TK-10 renal
U251 CNS = tested on: U251 CNS
UACC-257 melanoma = tested on: UACC-257 melanoma
UACC-62 melanoma = tested on: UACC-62 melanoma
UO-31 renal = tested on: UO-31 renal
HCT-15 colon = tested on: HCT-15 colon
HL-60(TB) leukemia = tested on: HL-60(TB) leukemia
K-562 leukemia = tested on: K-562 leukemia
MCF7 breast = tested on: MCF7 breast
NCI-H226 lung = tested on: NCI-H226 lung
NCI/ADR-RES ovarian = tested on: NCI/ADR-RES ovarian
OVCAR-8 ovarian = tested on: OVCAR-8 ovarian
RXF 393 renal = tested on: RXF 393 renal
SF-539 CNS = tested on: SF-539 CNS
A498 renal = tested on: A498 renal

C/C(=N/NC(=S)NCCc1ccccn1)c1cnccn1
TGI (786-0 renal): 57.2 µM | TGI (A549 NSCLC): > 100 µM | TGI (ACHN renal): > 100 µM | TGI (BT-549 breast): > 100 µM | TGI (CAKI-1 renal): > 100 µM | TGI (CCRF-CEM leukemia): 68.9 µM | TGI (COLO 205 colon): > 100 µM | TGI (DU-145 prostate): > 100 µM | TGI (EKVX NSCLC): > 100 µM | TGI (HCC-2998 colon): > 100 µM | TGI (HCT-116 colon): > 100 µM | TGI (HOP-62 NSCLC): > 100 µM | TGI (HOP-92 NSCLC): > 100 µM | TGI (HS 578T breast): > 100 µM | TGI (HT29 colon): > 100 µM | TGI (IGROV1 ovarian): > 100 µM | TGI (KM12 colon): > 100 µM | TGI (LOX IMVI melanoma): 40.1 µM | TGI (M14 melanoma): > 100 µM | TGI (MALME-3M melanoma): > 100 µM | TGI (MDA-MB-231 breast): > 100 µM | TGI (MDA-MB-435): > 100 µM | TGI (MDA-N): > 100 µM | TGI (MOLT-4 leukemia): 41.4 µM | TGI (NCI-H23 lung): > 100 µM | TGI (NCI-H460 lung): > 100 µM | TGI (NCI-H522 lung): > 100 µM | TGI (OVCAR-3 ovarian): > 100 µM | TGI (OVCAR-4 ovarian): > 100 µM | TGI (OVCAR-5 ovarian): > 100 µM | TGI (PC-3 prostate): > 100 µM | TGI (RPMI-8226 leukemia): 80 µM | TGI (SF-268 CNS): > 100 µM | TGI (SF-295 CNS): 63.8 µM | TGI (SK-MEL-2 melanoma): > 100 µM | TGI (SK-MEL-28 melanoma): > 100 µM | TGI (SK-MEL-5 melanoma): > 100 µM | TGI (SK-OV-3 ovarian): 70.5 µM | TGI (SN12C renal): 74.7 µM | TGI (SNB-19 CNS): > 100 µM | TGI (SNB-75 CNS): > 100 µM | TGI (SR leukemia): 65.9 µM | TGI (SW-620 colon): > 100 µM | TGI (T-47D breast): > 100 µM | TGI (TK-10 renal): > 100 µM | TGI (U251 CNS): > 100 µM | TGI (UACC-257 melanoma): > 100 µM | TGI (UACC-62 melanoma): 64.1 µM | TGI (UO-31 renal): 90.2 µM

COc1ccc([C@H](NC(=O)c2ccccc2)[C@@H](O)C(=O)O[C@H]2C[C@@]3(O)C(OC(=O)c4ccccc4)C4[C@](C)(C(=O)[C@H](OC(C)=O)C(=C2C)C3(C)C)[C@@H](O)C[C@H]2OC[C@@]42OC(C)=O)cc1 (stereo partly drawn)
TGI (786-0 renal): > 10 µM | TGI (A549 NSCLC): > 10 µM | TGI (ACHN renal): > 10 µM | TGI (BT-549 breast): > 10 µM | TGI (CAKI-1 renal): > 10 µM | TGI (CCRF-CEM leukemia): > 10 µM | TGI (COLO 205 colon): 0.0123 µM | TGI (DU-145 prostate): 0.00657 µM | TGI (EKVX NSCLC): > 10 µM | TGI (HCC-2998 colon): 0.091 µM | TGI (HCT-15 colon): > 8.98 µM | TGI (HL-60(TB) leukemia): 0.0279 µM | TGI (HOP-92 NSCLC): > 10 µM | TGI (HS 578T breast): 0.0122 µM | TGI (HT29 colon): 0.0656 µM | TGI (IGROV1 ovarian): > 10 µM | TGI (K-562 leukemia): > 10 µM | TGI (LOX IMVI melanoma): > 10 µM | TGI (M14 melanoma): > 10 µM | TGI (MALME-3M melanoma): > 10 µM | TGI (MCF7 breast): > 10 µM | TGI (MDA-MB-231 breast): > 10 µM | TGI (MDA-N): > 10 µM | TGI (MOLT-4 leukemia): > 5.11 µM | TGI (NCI-H226 lung): > 10 µM | TGI (NCI-H23 lung): > 10 µM | TGI (NCI-H460 lung): > 10 µM | TGI (NCI/ADR-RES ovarian): > 10 µM | TGI (OVCAR-4 ovarian): > 10 µM | TGI (OVCAR-5 ovarian): > 10 µM | TGI (OVCAR-8 ovarian): > 10 µM | TGI (RPMI-8226 leukemia): > 10 µM | TGI (RXF 393 renal): > 10 µM | TGI (SF-268 CNS): > 10 µM | TGI (SF-295 CNS): 2.92 µM | TGI (SF-539 CNS): 0.00758 µM | TGI (SK-MEL-2 melanoma): > 10 µM | TGI (SK-MEL-28 melanoma): > 10 µM | TGI (SK-MEL-5 melanoma): > 10 µM | TGI (SN12C renal): > 10 µM | TGI (SNB-19 CNS): > 10 µM | TGI (SNB-75 CNS): 0.0589 µM | TGI (SR leukemia): 0.694 µM | TGI (SW-620 colon): > 10 µM | TGI (T-47D breast): > 10 µM | TGI (TK-10 renal): > 10 µM | TGI (UACC-257 melanoma): > 10 µM | TGI (UACC-62 melanoma): > 10 µM

CC1OC(OC2C(O[C@@H]3C[C@@H]4CC[C@@H]5[C@H](CC[C@]6(C)C7C(C[C@@H]56)O[C@]5(CC[C@@H](C)CO5)[C@H]7C)[C@@]4(C)C[C@H]3O)OC(CO)C(O)C2O)C(O)C(O)C1O (stereo partly drawn)
TGI (A498 renal): 5.29 µM | TGI (BT-549 breast): 4.15 µM | TGI (CAKI-1 renal): 3.22 µM | TGI (CCRF-CEM leukemia): 3.52 µM | TGI (COLO 205 colon): 3.41 µM | TGI (DU-145 prostate): 3.13 µM | TGI (HCC-2998 colon): 3.21 µM | TGI (HCT-15 colon): 3.27 µM | TGI (HL-60(TB) leukemia): 4.48 µM | TGI (HOP-92 NSCLC): 6.25 µM | TGI (HS 578T breast): 5.26 µM | TGI (K-562 leukemia): 5.94 µM | TGI (LOX IMVI melanoma): 3.29 µM | TGI (MALME-3M melanoma): 3.15 µM | TGI (MDA-MB-231 breast): 3.19 µM | TGI (MDA-MB-435): 2.86 µM | TGI (MDA-N): 13.6 µM | TGI (NCI-H226 lung): 6.08 µM | TGI (NCI-H23 lung): 3.14 µM | TGI (OVCAR-3 ovarian): 3.02 µM | TGI (OVCAR-4 ovarian): 3.28 µM | TGI (OVCAR-5 ovarian): 2.85 µM | TGI (RPMI-8226 leukemia): 4.9 µM | TGI (RXF 393 renal): 3.65 µM | TGI (SF-268 CNS): 3.5 µM | TGI (SF-295 CNS): 3.2 µM | TGI (SF-539 CNS): 3.02 µM | TGI (SK-MEL-28 melanoma): 3.43 µM | TGI (SK-MEL-5 melanoma): 4.22 µM | TGI (SNB-19 CNS): 33 µM | TGI (SR leukemia): 5.24 µM | TGI (T-47D breast): 3.7 µM | TGI (TK-10 renal): 3.06 µM | TGI (UACC-257 melanoma): 3.35 µM | TGI (UACC-62 melanoma): 3.16 µM

CC(C)(C)[Si](C)(C)OCC#C[C@@]1(O)CCCCC1CC(Sc1ccccc1)Sc1ccccc1 (stereo partly drawn)
TGI (786-0 renal): 26.4 µM | TGI (A498 renal): 30.4 µM | TGI (A549 NSCLC): 28 µM | TGI (ACHN renal): 27.4 µM | TGI (BT-549 breast): 36.3 µM | TGI (CAKI-1 renal): 23.2 µM | TGI (CCRF-CEM leukemia): 39.5 µM | TGI (COLO 205 colon): 31.6 µM | TGI (DU-145 prostate): 29.8 µM | TGI (EKVX NSCLC): 30 µM | TGI (HCC-2998 colon): 30.7 µM | TGI (HCT-116 colon): 24 µM | TGI (HCT-15 colon): 34.5 µM | TGI (HL-60(TB) leukemia): 41.9 µM | TGI (HOP-62 NSCLC): 31.4 µM | TGI (HOP-92 NSCLC): 37.4 µM | TGI (HT29 colon): 27 µM | TGI (IGROV1 ovarian): 33.3 µM | TGI (K-562 leukemia): > 100 µM | TGI (KM12 colon): 63.8 µM | TGI (LOX IMVI melanoma): 34.5 µM | TGI (M14 melanoma): 35.5 µM | TGI (MALME-3M melanoma): 32.3 µM | TGI (MCF7 breast): 24.7 µM | TGI (MDA-MB-231 breast): 34.7 µM | TGI (MDA-MB-435): 31.4 µM | TGI (MDA-N): 37.7 µM | TGI (MOLT-4 leukemia): 51 µM | TGI (NCI-H226 lung): 34.8 µM | TGI (NCI-H23 lung): 36.1 µM | TGI (NCI-H460 lung): 34.6 µM | TGI (NCI-H522 lung): 26.8 µM | TGI (NCI/ADR-RES ovarian): 39 µM | TGI (OVCAR-3 ovarian): 26.4 µM | TGI (OVCAR-4 ovarian): 29.2 µM | TGI (OVCAR-5 ovarian): 27.2 µM | TGI (OVCAR-8 ovarian): 35.1 µM | TGI (PC-3 prostate): 26.3 µM | TGI (RPMI-8226 leukemia): 73.3 µM | TGI (RXF 393 renal): 27.1 µM | TGI (SF-295 CNS): 28.2 µM | TGI (SK-MEL-2 melanoma): 31.7 µM | TGI (SK-MEL-28 melanoma): 31.3 µM | TGI (SK-MEL-5 melanoma): 29.2 µM | TGI (SK-OV-3 ovarian): 34.4 µM | TGI (SN12C renal): 23.8 µM | TGI (SNB-19 CNS): 28.7 µM | TGI (SNB-75 CNS): 28.7 µM | TGI (SR leukemia): 57.4 µM | TGI (SW-620 colon): 31.7 µM | TGI (T-47D breast): 25.5 µM | TGI (TK-10 renal): 31.8 µM | TGI (U251 CNS): 26.1 µM | TGI (UACC-257 melanoma): 29.5 µM | TGI (UACC-62 melanoma): 26.7 µM | TGI (UO-31 renal): 26.9 µM
